Assay results taken from ChEMBL document CHEMBL5154935, “Design, Synthesis, and Biological Evaluation of Novel Evodiamine Derivatives as Potential Antihepatocellular Carcinoma Agents” (J Med Chem, 2022).
Activity calls are given as the source filed them. The calls are words filed in the database; no cut-off is given here.

Experiments:
SK-HEP1 [1] = assay: Antiproliferative activity against human SK-Hep1 cells assessed as inhibition of cell viability at less than 0.227 uM treated for 24 hrs by MTT assay; format: functional
SK-HEP1 [2] = assay: Induction of mitochondrial membrane potential changes in human SK-Hep1 cells assessed as decrease in TMRE positive cells at 10 to 80 nM incubated for 24 hrs by TMRE staining based flow cytometry (reference value: 87.92 %); format: functional; parameters: scale not given: the % may be the effect or the level left; conditions: dose 10-80 nM
[3] = Acute toxicity in Kunming mouse assessed as frequency of eating at 400 mg/kg, ip measured for 14 consecutive days; format: organism-based; conditions: in vivo, 336 h, time 14 day
[4] = Acute toxicity in Kunming mouse assessed as frequency of defecation at 400 mg/kg, ip measured for 14 consecutive days; format: organism-based; conditions: in vivo, 336 h, time 14 day
Huh-7 [5] = assay: Antitumor activity in human Huh-7 cells xenografted in BALB/c mouse assessed as decrease in Ki-67 positive cells at 10 mg/kg, ip qd for 11 days and measured on day 12 by immunohistochemistry staining based assay; format: functional, organism-based; conditions: time 12.0 day
Huh-7 [6] = assay: Antitumor activity against human Huh-7 cells xenografted in BALB/c mouse assessed as tumor growth inhibition at 10 mg/kg, ip qd for 11 days and measured every 2 days relative to control; format: functional; conditions: Huh-7, 264 h, time 11 day, read-out: TGI
[7] = Toxicity in BALB/c mouse xenografted with human Huh-7 cells assessed as decrease in body weight at 10 mg/kg, ip qd for 11 days and measured every 2 days; format: organism-based; conditions: in vivo, 264 h, time 11 day
Huh-7 [8] = assay: Antitumor activity against human Huh-7 cells xenografted in BALB/c mouse assessed as reduction in neo-vascularisation at 10 mg/kg, ip qd for 11 days and measured after 12 days by hematoxylin and eosin staining based assay; format: functional, organism-based; conditions: time 12.0 day
[9] = Toxicity in BALB/c mouse xenografted with human Huh-7 cells assessed as histopathological change in kidney at 10 mg/kg, ip qd for 11 days and measured after 12 days by hematoxylin and eosin staining based assay; format: organism-based; conditions: in vivo, 288 h, time 12 day
[10] = Toxicity in BALB/c mouse xenografted with human Huh-7 cells assessed as histopathological change in heart at 10 mg/kg, ip qd for 11 days and measured after 12 days by hematoxylin and eosin staining based assay; format: organism-based; conditions: in vivo, 288 h, time 12 day
[11] = Toxicity in BALB/c mouse xenografted with human Huh-7 cells assessed as histopathological change in spleen at 10 mg/kg, ip qd for 11 days and measured after 12 days by hematoxylin and eosin staining based assay; format: organism-based; conditions: in vivo, 288 h, time 12 day
[12] = Toxicity in BALB/c mouse xenografted with human Huh-7 cells assessed as reduction in platelet levels at 10 mg/kg, ip qd for 11 days and measured on day 11; format: organism-based; conditions: in vivo, 264 h, time 11 day
[13] = Toxicity in BALB/c mouse xenografted with human Huh-7 cells assessed as reduction in WBC levels at 10 mg/kg, ip qd for 11 days and measured on day 11; format: organism-based; conditions: in vivo, 264 h, time 11 day
[14] = Toxicity in BALB/c mouse xenografted with human Huh-7 cells assessed as reduction in RBC levels at 10 mg/kg, ip qd for 11 days and measured on day 11; format: organism-based, Erythrocyte; conditions: in vivo, 264 h, time 11 day
[15] = Toxicity in BALB/c mouse xenografted with human Huh-7 cells assessed as bone marrow suppression at 10 mg/kg, ip qd for 11 days and measured on day 11; format: organism-based; conditions: in vivo, 264 h, time 11 day
[16] = Toxicity in BALB/c mouse xenografted with human Huh-7 cells assessed as aplastic anemia at 10 mg/kg, ip qd for 11 days and measured on day 11; format: organism-based; conditions: in vivo, 264 h, time 11 day
[17] = Half life in Sprague-Dawley rat at 80 mg/kg, ip measured upto 24 hrs by LC-MS analysis; format: ADME, organism-based; conditions: in vivo
[18] = Cmax in Sprague-Dawley rat at 80 mg/kg, ip measured upto 24 hrs by LC-MS analysis; format: ADME, organism-based; parameters: dose 80 mg/kg, time < 24 hrs, route ip; conditions: in vivo
[19] = AUC (0 to t) in Sprague-Dawley rat at 80 mg/kg, ip measured upto 24 hrs by LC-MS analysis; format: ADME, organism-based; parameters: time < 24 hrs, dose 80 mg/kg, route ip; conditions: in vivo
[20] = Acute toxicity in Kunming mouse assessed as animal survival at 100 mg/kg, ip measured for 14 consecutive days; format: organism-based; conditions: in vivo, 336 h, time 14 day
Huh-7 [21] = assay: Antiproliferative activity against human Huh-7 cells assessed as inhibition of cell viability at less than 0.023 uM treated for 24 hrs by MTT assay; format: functional
Huh-7 [22] = assay: Antiproliferative activity against human Huh-7 cells assessed as inhibition of cell viability at less than 0.021 uM treated for 24 hrs by MTT assay; format: functional
SK-HEP1 [23] = assay: Induction of mitochondrial membrane potential changes in human SK-Hep1 cells assessed as decrease in TMRE positive cells at 10 to 80 nM incubated for 24 hrs by TMRE staining based flow cytometry (reference value: 86.19 %); format: functional; parameters: scale not given: the % may be the effect or the level left; conditions: dose 10-80 nM
[24] = Acute toxicity in Kunming mouse assessed as frequency of defecation at 100 mg/kg, ip measured for 14 consecutive days; format: organism-based; conditions: in vivo, 336 h, time 14 day

## CC(=O)Oc1ccc2[nH]c3c(c2c1)CCN1C(=O)c2cc(F)cc(F)c2N(c2cccc(F)c2)C31 (centres undefined)
SK-HEP1 [1]
  Activity: >80%
SK-HEP1 [2]
  Activity: 65.21%
[3]
  Activity: Non-Toxic
[4]
  Activity: Non-Toxic
Huh-7 [5]
  Activity: Active
Huh-7 [6]
  inhibition in vivo at 10 mg/kg: 60.4%
[7]
  Activity: Non-Toxic
Huh-7 [8]
  Activity: Active
[9]
  Activity: Non-Toxic
[10]
  Activity: Non-Toxic
[11]
  Activity: Non-Toxic
[12]
  Activity: Non-Toxic
[13]
  Activity: Non-Toxic
[14]
  Activity: Non-Toxic
[15]
  Activity: Non-Toxic
[16]
  Activity: Non-Toxic
[17]
  half-life: 434 min
[18]
  Cmax: 350 ng/mL
[19]
  AUC(0-t) at 24 h: 3070 ng·h/mL

## O=C1c2cc(F)cc(F)c2N(c2cccc(F)c2)C2c3[nH]c4ccc(O)cc4c3CCN12 (centres undefined)
[20]
  Activity: Non-Toxic
Huh-7 [21]
  Activity: >80%
Huh-7 [22]
  Activity: >80%
SK-HEP1 [23]
  Activity: 63.69%
[24]
  Activity: Non-Toxic
